Results as given in ChEMBL document CHEMBL5236646, “Design, synthesis, and biological evaluation of BRD4 degraders” (Bioorg Med Chem, 2023).
pIC50: −log10 of the molar value. Activity calls are given as the source filed them. No cut-off for these calls is given here.

Experiments:
[1] = target: T1, Protein cereblon/Bromodomain-containing protein 4 (Homo sapiens) (UniProt O60885+Q96SW2); experiment: Protac activity at CRBN/BRD4 in human MM1.S cells assessed as induction of BRD4 protein degradation by measuring residual activity at 300 nM measured after 9 hrs by Western blot analysis (reference value: 317%); type: cell-based
T1 sequence (Q96SW2 whole entry, looked up, other chains not shown): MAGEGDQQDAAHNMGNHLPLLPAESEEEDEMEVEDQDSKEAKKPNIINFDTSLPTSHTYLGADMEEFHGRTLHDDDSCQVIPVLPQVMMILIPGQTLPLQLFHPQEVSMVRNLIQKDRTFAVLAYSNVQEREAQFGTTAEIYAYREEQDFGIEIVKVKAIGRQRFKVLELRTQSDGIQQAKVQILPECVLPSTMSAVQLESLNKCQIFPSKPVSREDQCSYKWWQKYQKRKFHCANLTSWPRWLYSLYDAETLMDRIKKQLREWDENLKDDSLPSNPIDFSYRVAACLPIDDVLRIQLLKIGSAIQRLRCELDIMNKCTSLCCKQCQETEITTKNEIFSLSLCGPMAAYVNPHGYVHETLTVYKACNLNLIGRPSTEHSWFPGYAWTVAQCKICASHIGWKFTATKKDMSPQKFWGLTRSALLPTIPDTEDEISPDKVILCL

[2] = test system: MM1.S; experiment: Antiproliferative activity against human MM1.S cells assessed as inhibition of cell growth incubated for 72 hrs MTS assay; type: functional, cell-based
[3] = test system: MV4-11; experiment: Antiproliferative activity against human […] cells assessed as inhibition of cell growth incubated for 72 hrs MTS assay; type: functional, cell-based; conditions: MV4-11, 72 h
[4] = target: T1, Protein cereblon/Bromodomain-containing protein 4 (Homo sapiens); experiment: Protac activity at CRBN/BRD4 in human MM1.S cells assessed as downregulation of MYC protein expression at […] incubated for 3 hrs by Western blot analysis; type: cell-based
[5] = target: T1, Protein cereblon/Bromodomain-containing protein 4 (Homo sapiens); experiment: Protac activity at CRBN/BRD4 in human MM1.S cells assessed as induction of BRD4 protein degradation by measuring residual activity at 0.03 uM incubated for 3 hrs by Western blot analysis relative to control; type: cell-based
[6] = target: T1, Protein cereblon/Bromodomain-containing protein 4 (Homo sapiens); experiment: Protac activity at CRBN/BRD4 in human MM1.S cells assessed as induction of BRD4 protein degradation by measuring residual activity at 0.09 uM incubated for 3 hrs by Western blot analysis relative to control; type: cell-based
[7] = target: T1, Protein cereblon/Bromodomain-containing protein 4 (Homo sapiens); experiment: Protac activity at CRBN/BRD4 in human MM1.S cells assessed as induction of BRD4 protein degradation by measuring residual activity at 10 nM measured after 6 hrs by Western blot analysis (reference value: 100%); type: cell-based
[8] = target: T1, Protein cereblon/Bromodomain-containing protein 4 (Homo sapiens); experiment: Protac activity at CRBN/BRD4 in human MM1.S cells assessed as downregulation of MYC protein expression at 300 nM measured after 3 hrs by Western blot analysis; type: cell-based
[9] = target: T1, Protein cereblon/Bromodomain-containing protein 4 (Homo sapiens); experiment: Protac activity at CRBN/BRD4 in human MV4-11 cells assessed as induction of BRD4 protein degradation by measuring residual activity at 0.001 uM incubated for 3 hrs by Western blot analysis relative to control; type: cell-based
[10] = target: T1, Protein cereblon/Bromodomain-containing protein 4 (Homo sapiens); experiment: Protac activity at CRBN/BRD4 in human MV4-11 cells assessed as induction of BRD4 protein degradation by measuring residual activity at 0.003 uM incubated for 3 hrs by Western blot analysis relative to control; type: cell-based
[11] = target: T1, Protein cereblon/Bromodomain-containing protein 4 (Homo sapiens); experiment: Protac activity at CRBN/BRD4 in human MV4-11 cells assessed as induction of BRD4 protein degradation by measuring residual activity at 0.009 uM incubated for 3 hrs by Western blot analysis relative to control; type: cell-based
[12] = target: T1, Protein cereblon/Bromodomain-containing protein 4 (Homo sapiens); experiment: Protac activity at CRBN/BRD4 in human MV4-11 cells assessed as induction of BRD4 protein degradation by measuring residual activity at 30 nM measured after 1 hr by Western blot analysis (reference value: 100%); type: cell-based
[13] = target: T1, Protein cereblon/Bromodomain-containing protein 4 (Homo sapiens); experiment: Protac activity at CRBN/BRD4 in human MV4-11 cells assessed as induction of BRD4 protein degradation by measuring residual activity at 30 nM measured after 3 hrs by Western blot analysis (reference value: 100%); type: cell-based
[14] = target: T1, Protein cereblon/Bromodomain-containing protein 4 (Homo sapiens); experiment: Protac activity at CRBN/BRD4 in human MV4-11 cells assessed as induction of BRD4 protein degradation by measuring residual activity at 30 nM measured after 6 hrs by Western blot analysis (reference value: 100%); type: cell-based
[15] = target: T1, Protein cereblon/Bromodomain-containing protein 4 (Homo sapiens); experiment: Protac activity at CRBN/BRD4 in human MM1.S cells assessed as induction of BRD4 protein degradation by measuring residual activity at 300 nM measured immediately by Western blot analysis (reference value: 317%); type: cell-based
[16] = target: T1, Protein cereblon/Bromodomain-containing protein 4 (Homo sapiens); experiment: Protac activity at CRBN/BRD4 in human MM1.S cells assessed as induction of BRD4 protein degradation by measuring residual activity at 300 nM measured after 3 hrs by Western blot analysis (reference value: 317%); type: cell-based
[17] = target: T1, Protein cereblon/Bromodomain-containing protein 4 (Homo sapiens); experiment: Protac activity at CRBN/BRD4 in human MM1.S cells assessed as induction of BRD4 protein degradation by measuring residual activity at 300 nM measured after 6 hrs by Western blot analysis (reference value: 317%); type: cell-based
[18] = target: T1, Protein cereblon/Bromodomain-containing protein 4 (Homo sapiens); experiment: Protac activity at CRBN/BRD4 in human MM1.S cells assessed as induction of BRD4 protein degradation by measuring residual activity at 30 nM measured after 6 hrs by Western blot analysis (reference value: 100%); type: cell-based
[19] = target: T1, Protein cereblon/Bromodomain-containing protein 4 (Homo sapiens); experiment: Protac activity at CRBN/BRD4 in human MM1.S cells assessed as induction of BRD4 protein degradation by measuring residual activity at 100 nM measured after 6 hrs by Western blot analysis (reference value: 100%); type: cell-based
[20] = target: T1, Protein cereblon/Bromodomain-containing protein 4 (Homo sapiens); experiment: Protac activity at CRBN/BRD4 in human MM1.S cells assessed as induction of BRD4 protein degradation by measuring residual activity at 1000 nM measured after 6 hrs by Western blot analysis (reference value: 100%); type: cell-based
[21] = target: T1, Protein cereblon/Bromodomain-containing protein 4 (Homo sapiens); experiment: Protac activity at CRBN/BRD4 in human MV4-11 cells assessed as induction of BRD4 protein degradation by measuring residual activity at 1 nM measured after 6 hrs by Western blot analysis (reference value: 100%); type: cell-based
[22] = target: T1, Protein cereblon/Bromodomain-containing protein 4 (Homo sapiens); experiment: Protac activity at CRBN/BRD4 in human MV4-11 cells assessed as induction of BRD4 protein degradation by measuring residual activity at 10 nM measured after 6 hrs by Western blot analysis (reference value: 100%); type: cell-based
[23] = target: T1, Protein cereblon/Bromodomain-containing protein 4 (Homo sapiens); experiment: (§1) Protac activity at CRBN/BRD4 in human MM1.S cells assessed as induction of BRD4 protein degradation by measuring residual activity at 300 nM preincubated with tert-butyl (S)-2-(4-(4-chlorophenyl)-2,3,9-trimethyl-6H-thieno[3,2-f][1,2,4]triazolo[4,3-a][1,4]diazepin-6-yl)acetate for 2 hrs followed by compound addition and measured after 6 hrs by Western blot analysis (reference value: 100%); type: cell-based
[24] = target: T1, Protein cereblon/Bromodomain-containing protein 4 (Homo sapiens); experiment: as §1, with “MV4-11” for “MM1.S”, “30” for “300”; type: cell-based
[25] = Inhibition of TGF-beta induced activation of human MRC5 cells assessed as residual BRD4 protein level at 0.1 uM by Western blot analysis (reference value: 96%); type: functional
[26] = Inhibition of TGF-beta induced activation of human MRC5 cells assessed as residual BRD4 protein level at 0.5 uM by Western blot analysis (reference value: 96%); type: functional
[27] = Inhibition of TGF-beta induced activation of human MRC5 cells assessed as residual BRD4 protein level at 1 uM by Western blot analysis (reference value: 96%); type: functional
[28] = Inhibition of TGF-beta induced activation of human MRC5 cells assessed as residual BRD4 protein level at 5 uM by Western blot analysis (reference value: 96%); type: functional
[29] = Inhibition of TGF-beta induced activation of human MRC5 cells assessed as residual BRD4 protein level at 10 uM by Western blot analysis (reference value: 100%); type: functional
[30] = test system: MRC5; experiment: Inhibition of TGF-beta induced activation of human MRC5 cells assessed as downregulation of COL-1 protein expression at 0.1 to 10 uM by Western blot analysis; type: functional, cell-based; conditions: dose 0.1-10 µM
[31] = test system: MRC5; experiment: Inhibition of TGF-beta induced activation of human MRC5 cells assessed as downregulation of alpha-SMA protein expression at 0.1 to 10 uM by Western blot analysis; type: functional, cell-based; conditions: dose 0.1-10 µM

Activity [1]: 50%
pIC50 [2]: 7.57
pIC50 [3]: 8.52
Activity [4]: inactive
Activity [5]: 81%
Activity [6]: 70%
Activity [7]: 62%
Activity [8]: Active
Activity [9]: 100%
Activity [10]: 66%
Activity [11]: 62%
Activity [12]: 62%
Activity [13]: 72%
Activity [14]: 13%
Activity [15]: 362%
Activity [16]: 66%
Activity [17]: 18%
Activity [18]: 42%
Activity [19]: 24%
Activity [20]: 10%
Activity [21]: 107%
Activity [22]: 41%
Activity [23]: 61%
Activity [24]: 84%
Structure (SMILES): Cc1sc2c(c1C)C(c1ccc(Cl)cc1)=N[C@@H](CC(=O)NCCCCC(=O)NCCNc1cccc3c1C(=O)N(C1CCC(=O)NC1=O)C3=O)c1nnc(C)n1-2 (stereo partly specified)
Activity [25]: 31%
Activity [26]: 26%
Activity [27]: 40%
Activity [28]: 33%
Activity [29]: 25%
inhibition [30]: Active
inhibition [31]: Active
